Laboratory results published in US20220098146A1, “REVERSIBLE IMINE UV-ABSORBERS” (The United States of America, as represented by the …, priority 2020, published 2022).
≈ marks a conversion by molar mass, not a printed value.

How the values were obtained:
Rat = details: cited from earlier work
Silver ide = details: cited from earlier work
[1] = in vitro SPF and critical wavelength by UV spectroscopy and Mansur equation; assay type: physicochemical
Description: General procedure for determining in vitro SPF and critical wavelength: This method was adapted from Dutra, et al. (Dutra, E. A., et al., Brazilian Journal of Pharmaceutical Sciences, 3: 381-385 (2004)). First, 1.0 gram of sunscreen was placed in 100 mL flask and filled to volume with ethanol. The solution was mixed and filtered through cotton. 1.0 mL of the filtered solution was added to a 50 mL volumetric flask and the flask was filled to volume with ethanol. This final solution (˜0.02% of initial sunscreen) was placed in a 1 cm polystyrene cuvette and UV/Vis spectrum was recorded from 290 to 400 nm, every 5 nm, using a UV/Vis spectrophotometer (Molecular Devices Spectramax M2 UV-Vis Spectrophotometer) with ethanol as a reference . Next, the Mansur equation was applied (Mansur, J. S., et al., An Bras Dermatol., 61: 121-124 (1986)):
where EE (λ)=erythemal effect spectrum; I(λ)=solar intensity spectrum; abs (λ)=absorbance of sunscreen product; CF—correction factor (=10). The values of EE×I are constants determined by Sayre et al. (Photochemistry and Photobiology, 29(3): 559-566 (1979)) so that a standard sunscreen formulation containing 8% homosalate presents an SPF value of 4. The critical wavelength was determined as the wavelength at which 90% of the total absorbance from 290-400 nm occurred. […]

[2] = Calculation of skin permeation coefficient using Modified Potts and Guy Model; details: ratio of calculated skin permeation coefficient to that of octinoxate
Excerpt: S1: Calculation of Skin Permeation using Modified Potts and Guy Model: The Modified Potts and Guy Model is a validated method for calculating the skin permeation coefficient (Kp) of a compound in cm/hr (Wilschut et al. 1995; Guy and Potts 1993). It relies on two inputs—the octanol-water partition coefficient, (Kow, indicative of hydrophobicity), and the molecular weight of the compound as follows:
Using the Modified Potts and Guy Model, we calculated the skin permeation coefficient (Kp) of aminoguanidine and aldehyde subcomponents. This scenario represents the skin permeation of our compounds after dissociation. In order to probe skin permeation of the assembled guanyl hydrazones, which don't have published Kow's, we calculated Kp's of structurally similar molecules, robenidine and guanabenz. This scenario represents the application of our UV-absorbers directly to the skin via topical products. Lastly, we calculated the Kp of octinoxate for comparison. Based on these theoretical values, our compounds should have a much lower skin permeation potential than octinoxate and other commercial UV-absorbers.

Fathead minnow = details: cited from earlier work
[3] = UV absorbance spectroscopy versus subcomponents; assay type: physicochemical; details: versus diaminoguanidine and cinnamaldehyde; UVB and UVA regions
Excerpt: We determined the UV absorbing capacity of guanyl hydrazones in comparison to their aminoguanidine and aldehyde subcomponents. We prepared cinnamaldehyde diaminoguanidine (CinDAG) by reacting its subcomponents, diaminoguanidine and cinnamaldehyde, in a molar ratio of 1:2.

[4] = film leaching in DI or sea water with anion pairing; assay type: physicochemical
Description: General protocol to assess film leaching: To a polyethylene square (1 cm by 1 cm, cut from a Ziploc® bag) 10 μL of a concentrated solution (˜5 wt % in EtOH) of imine was applied and allowed to dry at room temperature (10-20 min) before a concentrated solution of the anion (e.g., sodium lauryl sulfate, sodium cocoyl glutamate, sodium carbonate) to be tested (˜5 wt %) was co-applied and again allowed to dry on the film surface. The film sample was placed inside a 1.5 mL plastic tube containing 1 mL of DI or sea water (sourced from San Francisco Bay, Albany, Calif.) and after a set time (10 min), analyzed for the presence of soluble imine, which was quantified as a percentage of total sample that was originally present on the film (FIG. 6).
As an additional feature, reversible UV-absorbers (e.g., aminoguanidine-aldehyde condensation products) can be paired with anions (e.g., that associate with the cation at typical use levels, e.g., 0.1-10 wt %) to manipulate solubility characteristics. This can greatly reduce water solubility to produce a waterproof sunscreen without relying on increased hydrophobicity of the active agent which is related to increased skin penetration (Wilschut, A., et al., Chemosphere, 30: 1275-1296 (1995); Guy, R. H., and R. O. Potts. American Journal of Industrial Medicine, 23(5): 711-719 (1993))).

[5] = test system: skin of the intrascapular regions of the back; test: Human repeat insult patch testing (RIPT) for skin irritation and skin sensitization; assay type: in vivo
Description: S2: Repeat Insult Patch Testing (RIPT) Procedure and Results: Human repeat insult patch testing for skin irritation and skin sensitization evaluations, including standard patient consent procedures and oversight, which were obtained after the nature and possible consequences of the study were explained, were conducted by BioScreen Testing Services, Inc. (Torrance, Calif.). Fifty-two volunteers were recruited, provided informed consent prior to initiating, and completed the study (ages 20-59, 10 male, 42 female, all with Fitzpatrick Skin Type 3—burn moderately, tan progressively). Approximately 0.02-0.05 mL of commercial formula (Daily Shower spray cleaner containing 0.2 or 1.0% cuminaldehyde aminoguanidine (CuminAG), pH 5.5-5.9; diluted 3% in DI water) was dispensed on a 7.5 mm paper disk or Rayon/polypropylene patch, which were then affixed to the skin of the intrascapular regions of the back. Subjects were instructed not to wet or expose the test area to sunlight. Patches were kept in place for 48 h after the first application, and 24 h after subsequent applications. This procedure was repeated until nine consecutive 24 h exposures had been made three times a week for three consecutive weeks. Test sites were evaluated by a trained laboratory personnel before each reapplication. After a 10-14 day rest period, a challenge dose was applied once to a previously unexposed test site, which was evaluated by a trained personnel after 48 and 96 h. The International Contact Dermatitis Research Group scoring scale was used: 0=no reaction, 1=erythema throughout at least ¾ of patch area, 2=erythema and induration throughout at least ¾ of patch area, 3=erythema, induration and vesicles, 4=erythema, induration and bullae.

For `COc1ccc(C=O)cc1` [Anisaldehyde], the “LD50 (mg/kg) Rat, oral” value (Rat) is given as 1510 mg/kg and the “LC50 (mg/L) Fish” value (Silver ide) is given as 215 mg/L (≈ 1580 µM).
In the case of `NC(N)=NN=CC=Cc1ccccc1` [CinAG, cinnamaldehyde aminoguanidine], the “in vitro SPF improvement over octinoxate” value ([1]; concentration of 1% in formula) was 155%.
In the case of `CCCCC(CC)COC(=O)C=Cc1ccc(OC)cc1` (stereo not drawn) [Octinoxate, reference compound], the Kp/Kp octinoxate [2] was 1.0000.
Molecule `N/N=C(\N)NN` [Diaminoguanidine] has a Kp/Kp octinoxate [2] of 0.0001.
In the case of `CC(C)c1ccc(C=O)cc1` [Cuminaldehyde], the “LD50 (mg/kg) Rat, oral” value (Rat) is listed as 1390 mg/kg and the “LC50 (mg/L) Fish” value (Fathead minnow) is listed as 6.62 mg/L (≈ 44.7 µM).
With “cinnamaldehyde diaminoguanidine [CinDAG]” the critical wavelength ([1]; wavelength at which 90% of total absorbance from 290-400 nm occurred) was “high critical wavelength”, the “UV-absorbing capacity compared to subcomponents” value [3] was “significantly more UV-absorbing capacity than its subcomponents” and the “water resistance of the blend” value ([4]; blend with sodium cocoyl glutamate) was “comparable to that of octinoxate”. For the same molecule, the “solubility (leaching off film) on anion pairing” value ([4]; sodium cocoyl glutamate added, fresh and salt water, 10 min) was “decreased solubility in both fresh and salt water”.
In the case of `CC(C)c1ccc(C=NN=C(N)N)cc1` [CuminAG, cuminaldehyde aminoguanidine], the “adverse reactions in RIPT” value ([5]; Daily Shower spray cleaner containing 0.2 or 1.0% CuminAG, pH 5.5-5.9, diluted 3% in DI water, 52 volunteers, induction and challenge) was “no adverse reactions of any kind”.
For `O=CC=Cc1ccccc1` [Cinnamaldehyde], the “LD50 (mg/kg) Rat, oral” value (Rat) is given as 3350 mg/kg and the “LC50 (mg/L) Fish” value (Fathead minnow) is given as 105.8 mg/L (≈ 801 µM).
For `O=Cc1ccccc1` [Benzaldehyde], the “LD50 (mg/kg) Rat, oral” value (Rat) is given as 1300 mg/kg and the “LC50 (mg/L) Fish” value (Fathead minnow) is given as 12.4 mg/L (≈ 117 µM).
With `CCCCCCCCCCCCOS(=O)(=O)[O-].[Na+]` [sodium lauryl sulfate] the “subjects with Grade 1 reaction in RIPT” value ([5]; positive control, 2.0% solution, ICDRG scale, 1=erythema throughout at least 3/4 of patch area) was “Four” and the “subjects with Grade 2 reaction in RIPT” value ([5]; positive control, 2.0% solution, ICDRG scale, 2=erythema and induration throughout at least 3/4 of patch area) was “two”.
